From the NIST ThermoML archive (doi:10.1021/acs.jced.7b00372)
Where “and” joins values, the source holds several entries; their conditions need not be identical. Equal values may be shown once. Numbers after ± are expanded uncertainties.

Tests used:
[1] = Liquid, Ebulliometric method (Recirculating still)
[2] = refractive index (Na D-line) (dimensionless); settings: 93 kPa, Liquid, Standard Abbe refractometry
[3] = refractive index (Na D-line) (dimensionless); xn = mol fraction of the nth substance listed; settings: 293.15 K, 93 kPa, Liquid, Standard Abbe refractometry

## Cc1ccccc1C [1,2-dimethylbenzene]
[1]; 414.41 K
  vapor or sublimation pressure: 93.13 ± 0.96 kPa
[2]; 293.15 K
  refractive index: 1.5048 ± 0.0004
[2]; 298.15 K
  refractive index: 1.5022 ± 0.0004

## Cc1ccccc1C [1,2-dimethylbenzene] + COC(=O)OC
[3]; x1 = 0.045
  refractive index: 1.377 ± 0.0005
[3]; x1 = 0.1564
  refractive index: 1.3961 ± 0.0005
[3]; x1 = 0.1622
  refractive index: 1.3969 ± 0.0005
[3]; x1 = 0.2752
  refractive index: 1.4149 ± 0.0005
[3]; x1 = 0.36
  refractive index: 1.4272 ± 0.0005
[3]; x1 = 0.4516
  refractive index: 1.4397 ± 0.0005
[3]; x1 = 0.5655
  refractive index: 1.4556 ± 0.0005
[3]; x1 = 0.603
  refractive index: 1.4601 ± 0.0005
[3]; x1 = 0.7134
  refractive index: 1.4734 ± 0.0005
[3]; x1 = 0.7602
  refractive index: 1.4795 ± 0.0005
[3]; x1 = 0.8813
  refractive index: 1.493 ± 0.0005
[3]; x1 = 0.9276
  refractive index: 1.4973 ± 0.0005
[3]; x1 = 1
  refractive index: 1.5048 ± 0.0004

## Cc1cccc(C)c1 [1,3-dimethylbenzene]
[1]; 409.13 K
  vapor or sublimation pressure: 93.13 ± 0.96 kPa
[2]; 293.15 K
  refractive index: 1.497 ± 0.0004
[2]; 298.15 K
  refractive index: 1.4943 ± 0.0004

## Cc1cccc(C)c1 [1,3-dimethylbenzene] + COC(=O)OC
[3]; x1 = 0.0467
  refractive index: 1.3769 ± 0.0005
[3]; x1 = 0.0871
  refractive index: 1.3836 ± 0.0005
[3]; x1 = 0.1737
  refractive index: 1.3973 ± 0.0005
[3]; x1 = 0.2042
  refractive index: 1.4021 ± 0.0005
[3]; x1 = 0.2593
  refractive index: 1.4101 ± 0.0005
[3]; x1 = 0.3033
  refractive index: 1.4167 ± 0.0005
[3]; x1 = 0.3719
  refractive index: 1.4262 ± 0.0005
[3]; x1 = 0.4455
  refractive index: 1.4359 ± 0.0005
[3]; x1 = 0.4709
  refractive index: 1.439 ± 0.0005
[3]; x1 = 0.5421
  refractive index: 1.4481 ± 0.0005
[3]; x1 = 0.6549
  refractive index: 1.4612 ± 0.0005
[3]; x1 = 0.7672
  refractive index: 1.4738 ± 0.0005
[3]; x1 = 0.8662
  refractive index: 1.4839 ± 0.0005
[3]; x1 = 0.94
  refractive index: 1.4913 ± 0.0005
[3]; x1 = 1
  refractive index: 1.497 ± 0.0004

## Cc1ccc(C)cc1 [1,4-dimethylbenzene]
[1]; 408.37 K
  vapor or sublimation pressure: 93.13 ± 0.96 kPa
[2]; 293.15 K
  refractive index: 1.4956 ± 0.0004
[2]; 298.15 K
  refractive index: 1.4929 ± 0.0004

## Cc1ccc(C)cc1 [1,4-dimethylbenzene] + COC(=O)OC
[3]; x1 = 0.0368
  refractive index: 1.3752 ± 0.0005
[3]; x1 = 0.0866
  refractive index: 1.3835 ± 0.0005
[3]; x1 = 0.157
  refractive index: 1.3946 ± 0.0005
[3]; x1 = 0.2639
  refractive index: 1.4106 ± 0.0005
[3]; x1 = 0.3598
  refractive index: 1.4241 ± 0.0005
[3]; x1 = 0.4244
  refractive index: 1.4326 ± 0.0005
[3]; x1 = 0.5293
  refractive index: 1.4457 ± 0.0005
[3]; x1 = 0.6397
  refractive index: 1.4586 ± 0.0005
[3]; x1 = 0.7655
  refractive index: 1.4724 ± 0.0005
[3]; x1 = 0.8832
  refractive index: 1.4848 ± 0.0005
[3]; x1 = 0.938
  refractive index: 1.4898 ± 0.0005
[3]; x1 = 1
  refractive index: 1.4956 ± 0.0004

## COC(=O)OC [dimethyl carbonate]
[1]; 360.73 K
  vapor or sublimation pressure: 93.13 ± 0.96 kPa
[2]; 293.15 K
  refractive index: 1.3687 ± 0.0004 and 1.3688 ± 0.0004
[2]; 298.15 K
  refractive index: 1.3664 ± 0.0004

## COC(=O)OC [dimethyl carbonate] + CCc1ccccc1
[3]; x2 = 0
  refractive index: 1.3688 ± 0.0004

## COC(=O)OC [dimethyl carbonate] + Cc1ccc(C)cc1
[3]; x2 = 0
  refractive index: 1.3687 ± 0.0004

## COC(=O)OC [dimethyl carbonate] + Cc1cccc(C)c1
[3]; x2 = 0
  refractive index: 1.3688 ± 0.0004

## COC(=O)OC [dimethyl carbonate] + Cc1ccccc1C
[3]; x2 = 0
  refractive index: 1.3688 ± 0.0004

## CCc1ccccc1 [ethylbenzene]
[1]; 406.23 K
  vapor or sublimation pressure: 93.13 ± 0.96 kPa
[2]; 293.15 K
  refractive index: 1.4956 ± 0.0004
[2]; 298.15 K
  refractive index: 1.493 ± 0.0004

## CCc1ccccc1 [ethylbenzene] + COC(=O)OC
[3]; x1 = 0.0462
  refractive index: 1.3767 ± 0.0005
[3]; x1 = 0.089
  refractive index: 1.3836 ± 0.0005
[3]; x1 = 0.1753
  refractive index: 1.397 ± 0.0005
[3]; x1 = 0.2701
  refractive index: 1.4109 ± 0.0005
[3]; x1 = 0.3564
  refractive index: 1.4232 ± 0.0005
[3]; x1 = 0.4359
  refractive index: 1.4335 ± 0.0006
[3]; x1 = 0.4448
  refractive index: 1.4352 ± 0.0005
[3]; x1 = 0.468
  refractive index: 1.4382 ± 0.0005
[3]; x1 = 0.5157
  refractive index: 1.4441 ± 0.0005
[3]; x1 = 0.5825
  refractive index: 1.4527 ± 0.0005
[3]; x1 = 0.6639
  refractive index: 1.4617 ± 0.0005
[3]; x1 = 0.7377
  refractive index: 1.4702 ± 0.0005
[3]; x1 = 0.852
  refractive index: 1.4815 ± 0.0005
[3]; x1 = 0.8827
  refractive index: 1.4847 ± 0.0005
[3]; x1 = 0.9124
  refractive index: 1.4873 ± 0.0005
[3]; x1 = 0.9395
  refractive index: 1.49 ± 0.0005
[3]; x1 = 1
  refractive index: 1.4956 ± 0.0004
